Data as given in PubChem BioAssay AID1963837 (Molecular Pharmacology Branch, DTP, NCI, 2024).

Tested on: 843126-344-R-J1-PDC complex spheroid viability
Experiment: Anticancer human tumor 843126-344-R-J1-PDC patient-derived melanoma cell line growth inhibition [POLQ]
Settings: second compound 1 µM; first compound 0.0316 µM; active compounds read low
How it was run: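 Growth inhibition in 3D: complex spheroids (tumor PDC, HUVEC, MSC) treated with POLQ inhibitor combinations; where Cmax unknown, highest tested concentration 10 microM, except SN-38 at 1 microM.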
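Note: spheroids exposed to drugs for seven days before readout.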

Row | SMILES | viability, T/C
1 | CC[C@@]1(O)C(=O)OCc2c1cc1n(c2=O)Cc2cc3c(CN(C)C)c(O)ccc3nc2-1 + Cc1cccc(N(C)C(=O)C2C(O)CCN2c2nc(C)cc(C(F)(F)F)c2C#N)c1 | 74%
2 | CCc1c2c(nc3ccc(O)cc13)-c1cc3c(c(=O)n1C2)COC(=O)[C@]3(O)CC + Cc1cccc(N(C)C(=O)C2C(O)CCN2c2nc(C)cc(C(F)(F)F)c2C#N)c1 | 55.1%
3 | CNCc1ccc(-c2[nH]c3cc(F)cc4c3c2CCNC4=O)cc1 + Cc1cccc(N(C)C(=O)C2C(O)CCN2c2nc(C)cc(C(F)(F)F)c2C#N)c1 | 68.9%
4 | Cn1ncnc1[C@H]1c2n[nH]c(=O)c3cc(F)cc(c23)N[C@@H]1c1ccc(F)cc1 + Cc1cccc(N(C)C(=O)C2C(O)CCN2c2nc(C)cc(C(F)(F)F)c2C#N)c1 | 76.4%
5 | O=C(c1cc(Cc2n[nH]c(=O)c3ccccc23)ccc1F)N1CCN(C(=O)C2CC2)CC1 + Cc1cccc(N(C)C(=O)C2C(O)CCN2c2nc(C)cc(C(F)(F)F)c2C#N)c1 | 85.4%

Same assay, conditions: second compound 1 µM; first compound 0.1 µM; active compounds read low

Row | SMILES | viability, T/C
6 | C=CCn1c(=O)c2cnc(Nc3ccc(N4CCN(C)CC4)cc3)nc2n1-c1cccc(C(C)(C)O)n1 + Cc1cccc(N(C)C(=O)C2C(O)CCN2c2nc(C)cc(C(F)(F)F)c2C#N)c1 | 99.5%
7 | CC[C@@]1(O)C(=O)OCc2c1cc1n(c2=O)Cc2cc3c(CN(C)C)c(O)ccc3nc2-1 + Cc1cccc(N(C)C(=O)C2C(O)CCN2c2nc(C)cc(C(F)(F)F)c2C#N)c1 | 52.8%
8 | CCc1c2c(nc3ccc(O)cc13)-c1cc3c(c(=O)n1C2)COC(=O)[C@]3(O)CC + Cc1cccc(N(C)C(=O)C2C(O)CCN2c2nc(C)cc(C(F)(F)F)c2C#N)c1 | 60.9%
9 | CNCc1ccc(-c2[nH]c3cc(F)cc4c3c2CCNC4=O)cc1 + Cc1cccc(N(C)C(=O)C2C(O)CCN2c2nc(C)cc(C(F)(F)F)c2C#N)c1 | 87.2%
10 | Cn1ncnc1[C@H]1c2n[nH]c(=O)c3cc(F)cc(c23)N[C@@H]1c1ccc(F)cc1 + Cc1cccc(N(C)C(=O)C2C(O)CCN2c2nc(C)cc(C(F)(F)F)c2C#N)c1 | 78.6%
11 | O=C(c1cc(Cc2n[nH]c(=O)c3ccccc23)ccc1F)N1CCN(C(=O)C2CC2)CC1 + Cc1cccc(N(C)C(=O)C2C(O)CCN2c2nc(C)cc(C(F)(F)F)c2C#N)c1 | 97.8%

Same assay, conditions: second compound 1 µM; first compound 0.316 µM; active compounds read low

Row | SMILES | viability, T/C
12 | C=CCn1c(=O)c2cnc(Nc3ccc(N4CCN(C)CC4)cc3)nc2n1-c1cccc(C(C)(C)O)n1 + Cc1cccc(N(C)C(=O)C2C(O)CCN2c2nc(C)cc(C(F)(F)F)c2C#N)c1 | 122%
13 | CCc1c2c(nc3ccc(O)cc13)-c1cc3c(c(=O)n1C2)COC(=O)[C@]3(O)CC + Cc1cccc(N(C)C(=O)C2C(O)CCN2c2nc(C)cc(C(F)(F)F)c2C#N)c1 | 59.6%
14 | CNCc1ccc(-c2[nH]c3cc(F)cc4c3c2CCNC4=O)cc1 + Cc1cccc(N(C)C(=O)C2C(O)CCN2c2nc(C)cc(C(F)(F)F)c2C#N)c1 | 95.7%
15 | O=C(c1cc(Cc2n[nH]c(=O)c3ccccc23)ccc1F)N1CCN(C(=O)C2CC2)CC1 + Cc1cccc(N(C)C(=O)C2C(O)CCN2c2nc(C)cc(C(F)(F)F)c2C#N)c1 | 96.9%

Same assay, conditions: second compound 1 µM; first compound 1 µM; active compounds read low

Row | SMILES | viability, T/C
16 | C=CCn1c(=O)c2cnc(Nc3ccc(N4CCN(C)CC4)cc3)nc2n1-c1cccc(C(C)(C)O)n1 + Cc1cccc(N(C)C(=O)C2C(O)CCN2c2nc(C)cc(C(F)(F)F)c2C#N)c1 | 86%
17 | CCc1c2c(nc3ccc(O)cc13)-c1cc3c(c(=O)n1C2)COC(=O)[C@]3(O)CC + Cc1cccc(N(C)C(=O)C2C(O)CCN2c2nc(C)cc(C(F)(F)F)c2C#N)c1 | 44.6%
18 | CNCc1ccc(-c2[nH]c3cc(F)cc4c3c2CCNC4=O)cc1 + Cc1cccc(N(C)C(=O)C2C(O)CCN2c2nc(C)cc(C(F)(F)F)c2C#N)c1 | 82.4%
19 | O=C(c1cc(Cc2n[nH]c(=O)c3ccccc23)ccc1F)N1CCN(C(=O)C2CC2)CC1 + Cc1cccc(N(C)C(=O)C2C(O)CCN2c2nc(C)cc(C(F)(F)F)c2C#N)c1 | 97.8%

Same assay, conditions: second compound 1 µM; first compound 3.16 µM; active compounds read low

Row | SMILES | viability, T/C
20 | CNCc1ccc(-c2[nH]c3cc(F)cc4c3c2CCNC4=O)cc1 + Cc1cccc(N(C)C(=O)C2C(O)CCN2c2nc(C)cc(C(F)(F)F)c2C#N)c1 | 94.6%
21 | O=C(c1cc(Cc2n[nH]c(=O)c3ccccc23)ccc1F)N1CCN(C(=O)C2CC2)CC1 + Cc1cccc(N(C)C(=O)C2C(O)CCN2c2nc(C)cc(C(F)(F)F)c2C#N)c1 | 84.1%

Same assay, conditions: second compound 1 µM; first compound 10 µM; active compounds read low

Row | SMILES | viability, T/C
22 | CNCc1ccc(-c2[nH]c3cc(F)cc4c3c2CCNC4=O)cc1 + Cc1cccc(N(C)C(=O)C2C(O)CCN2c2nc(C)cc(C(F)(F)F)c2C#N)c1 | 64.3%
23 | O=C(c1cc(Cc2n[nH]c(=O)c3ccccc23)ccc1F)N1CCN(C(=O)C2CC2)CC1 + Cc1cccc(N(C)C(=O)C2C(O)CCN2c2nc(C)cc(C(F)(F)F)c2C#N)c1 | 77.6%

Same assay, conditions: second compound 3.16 µM; first compound 0.000316 µM; active compounds read low

Row | SMILES | viability, T/C
24 | CC[C@@]1(O)C(=O)OCc2c1cc1n(c2=O)Cc2cc3c(CN(C)C)c(O)ccc3nc2-1 + Cc1cccc(N(C)C(=O)C2C(O)CCN2c2nc(C)cc(C(F)(F)F)c2C#N)c1 | 101%
25 | Cn1ncnc1[C@H]1c2n[nH]c(=O)c3cc(F)cc(c23)N[C@@H]1c1ccc(F)cc1 + Cc1cccc(N(C)C(=O)C2C(O)CCN2c2nc(C)cc(C(F)(F)F)c2C#N)c1 | 67.4%

Same assay, conditions: second compound 3.16 µM; first compound 0.001 µM; active compounds read low

Row | SMILES | viability, T/C
26 | CC[C@@]1(O)C(=O)OCc2c1cc1n(c2=O)Cc2cc3c(CN(C)C)c(O)ccc3nc2-1 + Cc1cccc(N(C)C(=O)C2C(O)CCN2c2nc(C)cc(C(F)(F)F)c2C#N)c1 | 96.1%
27 | Cn1ncnc1[C@H]1c2n[nH]c(=O)c3cc(F)cc(c23)N[C@@H]1c1ccc(F)cc1 + Cc1cccc(N(C)C(=O)C2C(O)CCN2c2nc(C)cc(C(F)(F)F)c2C#N)c1 | 78.7%

Same assay, conditions: second compound 3.16 µM; first compound 0.00316 µM; active compounds read low

Row | SMILES | viability, T/C
28 | C=CCn1c(=O)c2cnc(Nc3ccc(N4CCN(C)CC4)cc3)nc2n1-c1cccc(C(C)(C)O)n1 + Cc1cccc(N(C)C(=O)C2C(O)CCN2c2nc(C)cc(C(F)(F)F)c2C#N)c1 | 103%
29 | CC[C@@]1(O)C(=O)OCc2c1cc1n(c2=O)Cc2cc3c(CN(C)C)c(O)ccc3nc2-1 + Cc1cccc(N(C)C(=O)C2C(O)CCN2c2nc(C)cc(C(F)(F)F)c2C#N)c1 | 108%
30 | CCc1c2c(nc3ccc(O)cc13)-c1cc3c(c(=O)n1C2)COC(=O)[C@]3(O)CC + Cc1cccc(N(C)C(=O)C2C(O)CCN2c2nc(C)cc(C(F)(F)F)c2C#N)c1 | 67.5%
31 | Cn1ncnc1[C@H]1c2n[nH]c(=O)c3cc(F)cc(c23)N[C@@H]1c1ccc(F)cc1 + Cc1cccc(N(C)C(=O)C2C(O)CCN2c2nc(C)cc(C(F)(F)F)c2C#N)c1 | 88.9%

Same assay, conditions: second compound 3.16 µM; first compound 0.01 µM; active compounds read low

Row | SMILES | viability, T/C
32 | C=CCn1c(=O)c2cnc(Nc3ccc(N4CCN(C)CC4)cc3)nc2n1-c1cccc(C(C)(C)O)n1 + Cc1cccc(N(C)C(=O)C2C(O)CCN2c2nc(C)cc(C(F)(F)F)c2C#N)c1 | 105%
